Assay results taken from patent US6172087A, “N-oxide of heterocyclic ester, amide, thioester, or ketone hair growth compositions and uses” (GPI NIL Holding, Inc., priority 1998, dated 2001).
“Also recorded” adds a separate entry of the source.

How the values were obtained:
[1] = cited from earlier work
[2] = tested on: C57 black 6 mice; assay: In Vivo Hair Generation Test With C57 Black 6 Mice, Experiment A; details: 30 μM, topical, every 48 hours (3 applications), after 6 weeks
From the text: Care was taken not to nick or cause abrasion to the underlaying dermal layers. The animals were in anagen growth phase, as indicated by the pinkish color of the skin. […] Hair growth was quantitated by the percent of shaved area covered by new hair growth during this time period.

In the case of C=CC[C@@H]1/C=C(\C)C[C@H](C)C[C@H](OC)[C@H]2O[C@@](O)(C(=O)C(=O)N3CCCC[C@H]3C(=O)O[C@H](/C(C)=C/[C@@H]3CC[C@@H](O)[C@H](OC)C3)[C@H](C)[C@@H](O)CC1=O)[C@H](C)C[C@@H]2OC [FK506], the “hair growth on topical, but not oral, application (in words)” value [1] is given as “stimulates hair growth in a dose-dependent manner”.

For CCC(C)(C)C(=O)C(=O)N1CCC[C@H]1C(=O)OCCCc1cccnc1 [GPI 1046, 3-(3-pyridyl)-1-propyl(2s)-1-(3,3-dimethyl-1,2-dioxopentyl)-2-pyrrolidinecarboxylate], the “hair regrowth in the shaved area (in words)” value [2] was “essentially complete hair regrowth and their shaved areas were indistinguishable from unshaven C57 black 6 mice; also recorded: essentially, complete hair regrowth in the shaved area”.
